Laboratory results published in patent publication US9708336B2, “Metallo-beta-lactamase inhibitors” (priority 2014, dated 2017).
Like-named read-outs stand apart in the source and are kept apart here.

Experiments:
[1] = test system: Escherichia coli expressing NDM-1 (CLB30016); assay: Antibiotic potentiation activity: synergistic concentration (MITC95) with imipenem, OD600 growth; format: cell-based; settings: for Escherichia coli expressing NDM-1 (CLB 30016) MITC95: concentration giving 95% inhibition of bacterial growth
How it was run: (§1)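 Imipenem (4 μg/ml final; 1 μg/ml as an option) was combined with compound against isolates diluted 1:100 from saline suspensions into 1.1× CAMHB. Growth was assessed by absorbance at 22–24 h, 35 °C.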

[2] = test system: Klebsiella pneumoniae expressing VIM-1 (IHMA599644); assay: as above; format: cell-based; settings: for Klebsiella pneumoniae expressing VIM-1 (IHMA 599644) MITC95: concentration giving 95% inhibition of bacterial growth
How it was run: as §1

[3] = test system: Serratia marcescens expressing IMP-1 (CL5741); assay: as above; format: cell-based; settings: for Serratia marcescens expressing IMP-1 (CL5741) MITC95: concentration giving 95% inhibition of bacterial growth
How it was run: as §1

IMP-1 = IMP-1 (Serratia marcescens, UniProt P52699); assay: biochemical; format: biochemical; settings: read-out: IMP-1 IC50
Chain of IMP-1 (P52699 whole entry, looked up): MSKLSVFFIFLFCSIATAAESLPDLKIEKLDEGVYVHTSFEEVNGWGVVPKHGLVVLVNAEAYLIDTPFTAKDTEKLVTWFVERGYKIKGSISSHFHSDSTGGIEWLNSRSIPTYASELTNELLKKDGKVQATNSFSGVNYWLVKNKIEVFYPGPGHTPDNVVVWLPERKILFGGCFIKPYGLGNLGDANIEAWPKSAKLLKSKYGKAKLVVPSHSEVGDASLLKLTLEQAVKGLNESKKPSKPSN

VIM-1 = VIM-1 (Pseudomonas aeruginosa (strain ATCC 15692 / DSM 22644 / CIP 104116 / JCM 14847 / LMG 12228 / 1C / PRS 101 / PAO1), UniProt A0A0F7KYQ8); assay: Enzyme activity: determination of IC50, fluorescence assay with CCF2-FA substrate (VIM-1); format: biochemical
NDM-1 = NDM-1 (Klebsiella pneumoniae, UniProt C7C422); assay: biochemical; format: biochemical; settings: read-out: NDM-1 IC50
Chain of NDM-1 (C7C422 whole entry, looked up, species assumed): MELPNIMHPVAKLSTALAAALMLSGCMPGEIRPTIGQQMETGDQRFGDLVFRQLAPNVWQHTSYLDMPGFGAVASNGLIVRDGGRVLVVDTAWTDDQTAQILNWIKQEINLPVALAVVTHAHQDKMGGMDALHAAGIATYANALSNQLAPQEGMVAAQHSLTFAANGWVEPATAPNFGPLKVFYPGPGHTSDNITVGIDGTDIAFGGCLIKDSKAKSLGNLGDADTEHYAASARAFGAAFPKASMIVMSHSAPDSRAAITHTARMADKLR

[4] = fluorescence assay with CCF2-FA substrate
[5] = fluorescence assay with CCF2-FA substrate, read-out: VIM-1 IC50
[6] = (CLB30016, NDM-1), 95% growth inhibition
[7] = Klebsiella pneumoniae IHMA599644 (VIM-1), 95% growth inhibition
[8] = Serratia marcescens CL5741 (IMP-1), 95% growth inhibition
[9] = IMP-1 enzyme, CCF2-FA substrate
[10] = VIM-1 IC50, VIM-1 enzyme, CCF2-FA substrate
[11] = NDM-1 enzyme, CCF2-FA substrate
[12] = Escherichia coli expressing NDM-1 (CLB30016), 95% growth inhibition
[13] = Klebsiella pneumoniae expressing VIM-1 (IHMA599644), 95% growth inhibition
[14] = Serratia marcescens expressing IMP-1 (CL5741), 95% growth inhibition
[15] = IMP-1 enzyme, CCF2-FA fluorescence assay
[16] = VIM-1 enzyme, CCF2-FA fluorescence assay, read-out: VIM-1 IC50
[17] = NDM-1 enzyme, CCF2-FA fluorescence assay
[18] = VIM-1 enzyme, CCF2-FA substrate, read-out: VIM-1 IC50
[19] = CLB30016 (NDM-1), 95% inhibition of bacterial growth
[20] = IHMA599644 (VIM-1), 95% inhibition of bacterial growth
[21] = CL5741 (IMP-1), 95% inhibition of bacterial growth

SMILES | IC50 (IMP-1; [4]) | IC50 (VIM-1; [5]) | IC50 (NDM-1; [4]) | Escherichia coli MITC95 [1, 6] | Klebsiella pneumoniae MITC95 [2, 7] | Serratia marcescens MITC95 [3, 8] | IC50 (IMP-1; [9]) | IC50 (NDM-1; [11]) | IC50 (VIM-1; [18]) | other results
NS(=O)(=O)c1nccc(N2CCC3(CC2)NCNC3=O)c1-c1nnn[nH]1 [Example 221, 4-(4-oxo-1,3,8-triazaspiro[4.5]dec-8-yl)-3-(1H-tetrazol-5-yl)pyridine-2-sulfonamide] | 6170 nM | 6170 nM | 251 nM |  |  |  |  |  |  | Escherichia coli expressing NDM-1 (CLB 30016) MITC95 [1]: 4.688 µM; Klebsiella pneumoniae expressing VIM-1 (IHMA 599644) MITC95 [2]: 200 µM; Serratia marcescens expressing IMP-1 (CL5741) MITC95 [3]: 100 µM
NCC1(N)CCC(c2ccc(C(F)(F)F)c(S(N)(=O)=O)c2-c2nnn[nH]2)CC1 (stereo not drawn) [Example 497, 3-(4-Amino-4-(aminomethyl)cyclohexyl)-2-(1H-tetrazol-5-yl)-6-(trifluoromethyl)benzenesulfonamide] |  |  |  | 0.5859 µM | 6.25 µM | 0.3906 µM | 25.8 nM | 3.06 nM |  | IC50 (VIM-1; [10]): 59.5 nM
NS(=O)(=O)c1cccc(-c2ccc(CNCCc3cn[nH]c3)cc2)c1-c1nnn[nH]1 [Example 385, 4′-({[2-(1H-pyrazol-4-yl)ethyl]amino}methyl)-2-(1H-tetrazol-5-yl)biphenyl-3-sulfonamide] |  |  |  |  |  |  |  |  |  | Escherichia coli MITC95 [1, 12]: 1.563 µM; Klebsiella pneumoniae MITC95 [2, 13]: 50 µM; Serratia marcescens MITC95 [3, 14]: 6.25 µM; IC50 (IMP-1; [15]): 499 nM; IC50 (VIM-1; [16]): 357 nM; IC50 (NDM-1; [17]): 12.5 nM
COCc1cc(CCc2ccc(C(F)(F)F)c(S(N)(=O)=O)c2-c2nn[nH]n2)cnc1N [Example 512, 3-(2-(6-Amino-5-(methoxymethyl)pyridin-3-yl)ethyl)-2-(2H-tetrazol-5-yl)-6-(trifluoromethyl)benzenesulfonamide] |  |  |  | 9.375 µM | 2.344 µM | 0.9766 µM | 46 nM | 162 nM | 3.9 nM | 
CS(=O)(=O)C1CN(c2ccc(-c3cccc(S(N)(=O)=O)c3-c3nnn[nH]3)cn2)C1 [Example 631, 3-[6-(3-methylsulfonylazetidin-1-yl)-3-pyridyl]-2-(1H-tetrazol-5-yl)benzenesulfonamide] |  |  |  | 1.953 µM | 25 µM | 6.25 µM | 39.9 nM | 8.25 nM | 110 nM | 
NS(=O)(=O)c1c(C(F)(F)F)ccc([C@H]2CC[C@H](O)CC2)c1-c1nnn[nH]1 [Example 496] |  |  |  | 1.172 µM | 3.125 µM | 0.3906 µM | 1.09 nM | 0.506 nM | 0.397 nM | 
NS(=O)(=O)c1c(C(F)(F)F)ccc(-c2ccc(C3CCN(CC4CCCCN4)CC3)cc2)c1-c1nnn[nH]1 (stereo not drawn) [Example 676, 4′-[1-(piperidin-2-ylmethyl)piperidin-4-yl]-2-(1H-tetrazol-5-yl)-4-(trifluoromethyl)biphenyl-3-sulfonamide] |  |  |  | 12.5 µM | >200 µM | 6.25 µM | 1.26 nM | 5.59 nM | 9.1 nM | 
NS(=O)(=O)c1c(CC2CCN(CC3CNC3)CC2)ccc(-c2ccc(C3CCNCC3)cc2)c1-c1nn[nH]n1 [Example 471, 4-((1-(azetidin-3-ylmethyl)piperidin-4-yl)methyl)-4′-(piperidin-4-yl)-2-(2H-tetrazol-5-yl)-[1,1′-biphenyl]-3-sulfonamide] |  |  |  |  |  |  |  |  |  | Escherichia coli MITC95 [1, 12]: 0.7813 µM; Klebsiella pneumoniae MITC95 [2, 13]: 1.563 µM; Serratia marcescens MITC95 [3, 14]: 1.563 µM; IC50 (IMP-1; [15]): 8.68 nM; IC50 (VIM-1; [16]): 2.05 nM; IC50 (NDM-1; [17]): 2.72 nM
Nc1ccc(CCc2cccc(S(N)(=O)=O)c2-c2nn[nH]n2)cn1 [Example 427, 3-(2-(6-aminopyridin-3-yl)ethyl)-2-(2H-tetrazol-5-yl)benzenesulfonamide] |  |  |  |  |  |  |  |  |  | Escherichia coli MITC95 [1, 12]: 0.25 µM; Klebsiella pneumoniae MITC95 [2, 13]: 75 µM; Serratia marcescens MITC95 [3, 14]: 4.688 µM; IC50 (IMP-1; [15]): 109 nM; IC50 (VIM-1; [16]): 450 nM; IC50 (NDM-1; [17]): 29.8 nM
NS(=O)(=O)c1c(C(F)(F)F)ccc([C@H]2CC[C@@H](N)CC2)c1-c1nnn[nH]1 [Example 819, 3-((1s,4s)-4-aminocyclohexyl)-2-(1H-tetrazol-5-yl)-6-(trifluoromethyl)benzenesulfonamide] | 97.1 nM | 27.4 nM | 14.3 nM |  |  |  |  |  |  | Escherichia coli MITC95 [1, 19]: 0.8464 µM; Klebsiella pneumoniae MITC95 [2, 20]: 3.385 µM; Serratia marcescens MITC95 [3, 21]: 1.823 µM
NS(=O)(=O)c1cccc(Cc2ccccc2)c1-c1nnn[nH]1 [Example 162, 3-benzyl-2-(1H-tetrazol-5-yl)benzenesulfonamide] | 571 nM | 691 nM | 18.9 nM |  |  |  |  |  |  | Escherichia coli expressing NDM-1 (CLB 30016) MITC95 [1]: 1.563 µM; Klebsiella pneumoniae expressing VIM-1 (IHMA 599644) MITC95 [2]: 200 µM; Serratia marcescens expressing IMP-1 (CL5741) MITC95 [3]: 12.5 µM
NS(=O)(=O)c1cccc(-c2ccc(CN3CC[C@H](CO)C3)cc2)c1-c1nnn[nH]1 [Example 392, 4′-{[(3S)-3-(hydroxymethyl)pyrrolidin-l-yl]methyl}-2-(1H-tetrazol-5-yl)biphenyl-3-sulfonamide] |  |  |  |  |  |  |  |  |  | Escherichia coli MITC95 [1, 12]: 2.344 µM; Klebsiella pneumoniae MITC95 [2, 13]: 75 µM; Serratia marcescens MITC95 [3, 14]: 3.125 µM; IC50 (IMP-1; [15]): 394 nM; IC50 (VIM-1; VIM-1 IC50, VIM-1 enzyme, CCF2-FA fluorescence assay): 455 nM; IC50 (NDM-1; [17]): 7.88 nM
NS(=O)(=O)c1c(C(F)(F)F)ccc([C@H]2CC[C@H](NC3CCCNC3)CC2)c1-c1nnn[nH]1 (stereo partly drawn) [Example 697, 3-[4-(piperidin-3-ylamino)cyclohexyl]-2-(1H-tetrazol-5-yl)-6-(trifluoromethyl)benzene sulfonamide] |  |  |  | 0.7813 µM | 6.25 µM | 3.125 µM | 6.42 nM | 1.61 nM |  | IC50 (VIM-1; [10]): 6.33 nM
NS(=O)(=O)c1c(C(F)(F)F)ccc(-c2ccc(C3CNCCO3)cc2)c1-c1nnn[nH]1 (stereo not drawn) [Example 713, 4′-morpholin-2-yl-2-(1H-tetrazol-5-yl)-4-(trifluoromethyl)biphenyl-3-sulfonamide] |  |  |  | 3.125 µM | 3.125 µM | 6.25 µM | 3.54 nM | 3.27 nM | 0.819 nM | 
NS(=O)(=O)c1cccc(C2CCC(N3CCNCC3)CC2)c1-c1nn[nH]n1 (stereo not drawn) [Example 170, 3-(4-(piperazin-1-yl)cyclohexyl)-2-(2H-tetrazol-5-yl)benzenesulfonamide] | 577 nM | 3470 nM | 21.9 nM |  |  |  |  |  |  | Escherichia coli expressing NDM-1 (CLB 30016) MITC95 [1]: 1.563 µM; Klebsiella pneumoniae expressing VIM-1 (IHMA 599644) MITC95 [2]: 200 µM; Serratia marcescens expressing IMP-1 (CL5741) MITC95 [3]: 9.375 µM
N=C(N)N1CCC([C@H]2CC[C@H](c3ccc(C(F)(F)F)c(S(N)(=O)=O)c3-c3nnn[nH]3)CC2)CC1 [Example 825, 4-[4-[3-sulfamoyl-2-(1H-tetrazol-5-yl)-4-(trifluoromethyl)phenyl]cyclohexyl] piperidine-1-carboxamidine] | 0.499 nM | 0.0805 nM | 0.157 nM |  |  |  |  |  |  | Escherichia coli MITC95 [1, 19]: 0.7813 µM; Klebsiella pneumoniae MITC95 [2, 20]: 3.125 µM; Serratia marcescens MITC95 [3, 21]: 1.563 µM
